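Step 1: Grow cells in 96-well plates. Step 2: Expose to compound for 48 hours at 5 concentrations. Step 3: Interpolate endpoints linearly; if unreached, use highest concentration. GI50 = concentration required for 50% inhibition of growth. TGI denotes the concentration required for complete inhibition of growth.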
Legend:
Assay in all cases: NCI tumour cell line growth inhibition, 48 h
HCT-15 colon = tested on: HCT-15 colon
HL-60(TB) leukemia = tested on: HL-60(TB) leukemia
K-562 leukemia = tested on: K-562 leukemia
NCI-H23 lung = tested on: NCI-H23 lung
NCI-H522 lung = tested on: NCI-H522 lung
RPMI-8226 leukemia = tested on: RPMI-8226 leukemia
RXF 393 renal = tested on: RXF 393 renal
SK-MEL-28 melanoma = tested on: SK-MEL-28 melanoma
UO-31 renal = tested on: UO-31 renal
SNB-75 CNS = tested on: SNB-75 CNS

Row | SMILES | TGI (HCT-15 colon) | TGI (HL-60(TB) leukemia) | TGI (K-562 leukemia) | TGI (NCI-H23 lung) | TGI (NCI-H522 lung) | TGI (RPMI-8226 leukemia) | TGI (RXF 393 renal) | TGI (SK-MEL-28 melanoma) | TGI (UO-31 renal) | TGI (SNB-75 CNS) | GI50 (HCT-15 colon) | GI50 (HL-60(TB) leukemia) | GI50 (K-562 leukemia) | GI50 (NCI-H23 lung) | GI50 (RPMI-8226 leukemia) | GI50 (SNB-75 CNS) | GI50 (UO-31 renal) | GI50 (NCI-H522 lung) | GI50 (RXF 393 renal) | GI50 (SK-MEL-28 melanoma)
1 | O=C(O)/C(Cc1ccc([N+](=O)[O-])cc1)=N\O | > 100 µM | > 100 µM | > 100 µM | > 100 µM | > 100 µM | > 100 µM | > 100 µM | > 100 µM | > 100 µM | – | – | – | – | – | – | – | – | – | – | –
2 | CC(=O)NC1=C[C@@H]([C@H]2COC(C)(C)O2)OC1=O | > 100 µM | > 100 µM | > 100 µM | > 100 µM | > 100 µM | > 100 µM | > 100 µM | > 100 µM | > 100 µM | > 100 µM | – | – | – | – | – | – | – | – | – | –
3 | CC(C)C(N)=O | > 5000 µM | > 5000 µM | > 5000 µM | > 5000 µM | > 5000 µM | > 5000 µM | > 5000 µM | > 5000 µM | > 5000 µM | > 5000 µM | – | – | – | – | – | – | – | – | – | –
4 | C=C(OC1C(C)=C2C(C1OC(=O)CCCCCCC)C(C)(OC(C)=O)CC(OC(=O)CCC)C1(O)C2OC(=O)C1(C)O)/C(C)=C/C (stereo not given) | 15 µM | – | 5.38 µM | 3.82 µM | 1.11 µM | 0.0256 µM | 1.53 µM | 3.97 µM | 0.614 µM | 1.61 µM | 0.0842 µM | < 0.0001 µM | < 0.0001 µM | < 0.0001 µM | < 0.0001 µM | < 0.0001 µM | 0.17 µM | – | – | –
5 | CCCCCCCCCCCCOCCCOP(=O)([O-])OCC[N+](C)(C)C | > 73.3 µM | 55.5 µM | > 76.5 µM | 99.2 µM | 68.3 µM | 31.6 µM | > 53.3 µM | > 92.7 µM | > 89.5 µM | 71.1 µM | – | – | – | – | – | – | – | – | – | –
6 | COC(=O)c1cnc(Cl)cn1 | 38.5 µM | > 100 µM | > 100 µM | 54 µM | 5.33 µM | 59 µM | – | > 100 µM | 36.9 µM | > 100 µM | – | – | – | – | – | – | – | – | – | –
7 | Nc1nc(N)c2cc(NCc3ccc(Cl)c(Cl)c3)ccc2n1 | 2.02 µM | 2.93 µM | – | 2.61 µM | 2.77 µM | – | 2.34 µM | 3.15 µM | 2.89 µM | 2.48 µM | 0.765 µM | 1.35 µM | – | 1.19 µM | – | 1.23 µM | 1.35 µM | 1.31 µM | 1.13 µM | 1.77 µM

Source: PubChem BioAssay (NCI)
